IC50 and EC50 data for 20 molecules are collected here from BindingDB's records for doi:10.1021/jm0303094 (Aton Pharma, 2003).

Broadly, the IC50 is the concentration that gives 50% inhibition. High values mean weaker potency, low ones greater potency. As a reminder, the EC50 is the midpoint of the concentration-response curve. Read a high EC50 as a need for much substance.

One assay concerns the target Histone deacetylase. Put plainly: Inhibitory concentration determined against Histone deacetylase from Eimeria tenella.
`CCC(C)[C@@H]1NC(=O)[C@H](Cc2cn(OC)c3ccccc23)NC(=O)[C@H](CCCCCC(=O)C(C)O)NC(=O)[C@H]2CCCCN2C1=O` (stereo partly drawn) [(6S,9S,12S,14aR)-6-sec-Butyl-12-(7-hydroxy-6-oxo-octyl)-9-(1-methoxy-1H-indol-3-ylmethyl)-decahydro-4a,7,10,13-tetraaza-benzocyclododecene-5,8,11,14-tetraone] displayed an IC50 of 0.004 µM. On the same count and under the same terms, in the case of `CCC(C)[C@@H]1NC(=O)[C@H](Cc2cn(OC)c3ccccc23)NC(=O)[C@H](CCCCCC(=O)NO)NC(=O)[C@H]2CCCCN2C1=O` (stereo partly drawn) [6-[(6S,9S,12S,14aR)-6-sec-Butyl-9-(1-methoxy-1H-indol-3-ylmethyl)-5,8,11,14-tetraoxo-tetradecahydro-4a,7,10,13-tetraaza-benzocyclododecen-12-yl]-hexanoic acid hydroxyamide] it was 0.004 µM; in that of `CCC(C)[C@@H]1NC(=O)[C@H](Cc2cn(OC)c3ccccc23)NC(=O)[C@H](CCCCCC(=O)O)NC(=O)[C@H]2CCCCN2C1=O` (stereo partly drawn) [6-[(6S,9S,12S,14aR)-6-sec-Butyl-9-(1-methoxy-1H-indol-3-ylmethyl)-5,8,11,14-tetraoxo-tetradecahydro-4a,7,10,13-tetraaza-benzocyclododecen-12-yl]-hexanoic acid], 0.03 µM. Molecule `CCC(C)[C@@H]1NC(=O)[C@H](Cc2cn(OC)c3ccccc23)NC(=O)[C@H](CCCCCC(=O)OC)NC(=O)[C@H]2CCCCN2C1=O` (stereo partly drawn) [6-[(6S,9S,12S,14aR)-6-sec-Butyl-9-(1-methoxy-1H-indol-3-ylmethyl)-5,8,11,14-tetraoxo-tetradecahydro-4a,7,10,13-tetraaza-benzocyclododecen-12-yl]-hexanoic acid methyl ester] came in with an IC50 of 0.0008 µM. For the molecule `CCC(C)[C@@H]1NC(=O)[C@H](Cc2cn(OC)c3ccccc23)NC(=O)[C@H](CCCCCC(=O)C2CO2)NC(=O)[C@H]2CCCCN2C1=O` (stereo partly drawn) [(6S,9S,12S,14aR)-6-sec-Butyl-9-(1-methoxy-1H-indol-3-ylmethyl)-12-(6-oxiranyl-6-oxo-hexyl)-decahydro-4a,7,10,13-tetraaza-benzocyclododecene-5,8,11,14-tetraone], the IC50 came to 0.001 µM.

Target in a further assay: not listed separately
As to the kind of experiment: Inhibition of acetylation of histone-4 in human T-24 cancer cells.
`Cc1ccc(NS(=O)(=O)c2ccc(/C=C/C(=O)NO)cc2)cc1` [US8796330, 161] had an EC50 of 1 µM. `O=C(/C=C/c1ccc(S(=O)(=O)Nc2ccc(-c3ccccc3)cc2)cc1)NO` yielded an EC50 of 1 µM. Molecule `O=C(CCc1ccc(NS(=O)(=O)c2ccccc2)cc1)NO` [US8796330, 38] yielded a concentration giving a half-maximal response (EC50) of 5 µM. Still for that read-out and setting: in the case of `COc1ccc(NC(=O)Nc2ccc(/C=C/C(=O)NO)cc2)cc1OC` it was above 25 µM; in that of `CC(Cc1ccc(NS(=O)(=O)c2ccccc2)cc1)C(=O)NO` (stereo not given) [3-(4-Benzenesulfonylamino-phenyl)-N-hydroxy-2-methyl-propionamide], above 25 µM. In turn, `O=C(/C=C/c1ccc(NS(=O)(=O)c2ccc(-c3ccccc3)cc2)cc1)NO` [US8796330, 120] displayed an EC50 of 1 µM. `COc1ccc(S(=O)(=O)Nc2ccc(/C=C/C(=O)NO)cc2)cc1` [US8796330, 113]: the EC50 worked out at 5 µM. `C/C(=C\c1ccc(NS(=O)(=O)c2ccccc2)cc1)C(=O)NO` [US8796330, 91] displayed an EC50 above 25 µM. In the case of `O=C(CCCc1ccc(NS(=O)(=O)c2ccccc2)cc1)NO` [US8796330, 42], the half-maximal effective concentration (EC50) is above 25 µM. Still for that read-out and setting: the same measure for `COc1ccc(S(=O)(=O)Nc2ccc(/C=C/C(=O)NO)cc2)cc1OC` [US8796330, 90]: 1 µM; for `O=C(NO)c1ccc(NS(=O)(=O)c2ccccc2)cc1` [4-Benzenesulfonylamino-N-hydroxy-benzamide]: 5 µM. With `O=C(Cc1ccc(NS(=O)(=O)c2ccccc2)cc1)NO` [2-(4-Benzenesulfonylamino-phenyl)-N-hydroxy-acetamide], the EC50 is above 25 µM.

In the case of `CN(c1ccc(/C=C/C(=O)NO)cc1)S(=O)(=O)c1ccccc1`, the EC50 is above 25 µM. Turning to `Cc1ccc(S(=O)(=O)Nc2ccc(/C=C/C(=O)NO)cc2)cc1` [US8796330, 108], the EC50 was 10 µM.

Take `CC(C)C(Cc1ccc(NS(=O)(=O)c2ccccc2)cc1)C(=O)NO` (stereo not given) [US8796330, 81]: the EC50 is above 25 µM.
